Like-named read-outs stand apart in the source and are kept apart here.
Assays:
MV4-11 cells = experiment: MV4-11 cell proliferation inhibition experiment (CellTiter-Glo); type: cell-based; details: Homo sapiens, read-out: Cell proliferation inhibition activity
Procedure: The number of living cells in the culture was determined by quantitative determination of intracellular ATP using CellTiter-Glo® Luminescent Cell Viability Assay kit.
In the first step, MV4-11 cells were inoculated into 96-well plates with a density of 2500 cells per well and a volume of 100 μL per well. The plates were placed in 37° C., 5% carbon dioxide incubator overnight.
In the second step, cells were treated with compounds. The compounds to be tested were diluted 3 times, and 8 concentration gradients were set up. Each well was added with a certain volume of DMSO or the compound to be tested, and each concentration was tested in 2 replicates, and the final concentration of DMSO was 0.5%. The plates were placed in 37° C., 5% carbon dioxide incubator for 72 h.
In the third step, cell viability of the control groups and the treatment groups was determined using CellTiter-Glo® Luminescent Cell Viability Assay kit (Promega, G7570). Each well was added with 50 uL CellTiter-Glo. The culture was mixed well, and incubated at room temperature for 10 min. Signals were read using EnSpire (Perkin Elmer). Inhibition percentages (%) were calculated by the following formula:
Inhibition percentage (%)=(1−signal value of compound treatment group/signal value of DMSO treatment group)*100.

SHP2 E76A protein = target: T1, SHP2 E76A protein (Homo sapiens, UniProt Q06124, E76A); experiment: SHP2 enzyme activity inhibition test (DiFMUP substrate, fluorescence); type: biochemical; details: 50 ng SHP2 E76A, 20 min with compound, then 10 uM DiFMUP 20 min at room temperature
T1 sequence (Q06124 1-593 E76A): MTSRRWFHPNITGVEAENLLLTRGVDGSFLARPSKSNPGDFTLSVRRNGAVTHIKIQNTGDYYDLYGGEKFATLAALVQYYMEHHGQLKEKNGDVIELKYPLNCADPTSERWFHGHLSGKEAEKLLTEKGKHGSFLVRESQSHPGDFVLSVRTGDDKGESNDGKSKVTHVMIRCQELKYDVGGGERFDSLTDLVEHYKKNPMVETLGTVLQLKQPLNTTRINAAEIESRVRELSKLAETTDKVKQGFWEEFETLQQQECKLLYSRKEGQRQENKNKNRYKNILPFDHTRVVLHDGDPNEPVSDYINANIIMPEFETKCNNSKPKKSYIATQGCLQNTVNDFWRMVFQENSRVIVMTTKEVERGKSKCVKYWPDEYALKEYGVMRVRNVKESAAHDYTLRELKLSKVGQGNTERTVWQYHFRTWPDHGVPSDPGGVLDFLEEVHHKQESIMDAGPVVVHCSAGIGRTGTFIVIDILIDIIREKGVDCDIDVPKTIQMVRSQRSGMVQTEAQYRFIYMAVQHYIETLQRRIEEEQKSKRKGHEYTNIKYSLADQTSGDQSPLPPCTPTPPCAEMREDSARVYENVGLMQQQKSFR

[1] = Pharmacokinetics experiment, intragastric single dose; type: in vivo; details: mouse, plasma, male mice, oral administration dosage 5 mg/Kg; for half-life: read-out: Half-life T1/2 (converted); for Cmax: read-out: Maximum plasma concentration Cmax; for AUC: read-out: Plasma exposure AUC
Procedure: Pharmacokinetics of the compound of the disclosure was determined. The following method was used to determine the pharmacokinetic parameters of the compound of the disclosure. Healthy male adult mice were used in the study. Each group was intragastrically administered with a single dose of 5-100 mg/kg. Fasting lasted from 10 hours before administration to 4 hours after administration. Blood samples were collected at different time points after administration and the compound content in plasma was determined by LC-MS/MS. The relationship between plasma concentration and time was analyzed by professional software (winnonlin), and the pharmacokinetic parameters of the compounds were calculated. According to Table 3, the compounds of the disclosure have excellent pharmacokinetic properties.

[2] = MV4-11 cells, 72 h, CellTiter-Glo

For `N[C@@H]1c2cccnc2CC12CCN(c1ncc(Sc3ccnc4c3CCO4)c3nccn13)CC2` [Compound 1], the IC50 (MV4-11 cells; MV4-11, 72 h) was 68 nM and the IC50 (SHP2 E76A protein) was 11 nM.

Compound `Nc1nccc(Sc2cnc(N3CCC4(CC3)Cc3ccccc3[C@H]4N)n3cnnc23)c1Cl` [Compound 2] has an IC50 (MV4-11 cells; [2]) of 11 nM and an IC50 (SHP2 E76A protein) of 4 nM.

Work on `Nc1nccc(Sc2cnc(N3CCC4(CC3)Cc3ncccc3[C@H]4N)n3cnnc23)c1Cl` [Compound 3, (S)-1′-(8-((2-amino-3-chloropyridin-4-yl)thio)-[1,2,4]triazolo[4,3-c]pyrimidin-5-yl)-5,7-dihydrospiro[cyclopenta[b]pyridine-6,4′-piperidine]-5-amine] yielded an IC50 (MV4-11 cells; [2]) of 99 nM and an IC50 (SHP2 E76A protein) of 11 nM.

In the case of `Nc1nccc(Sc2cnc(N3CCC4(CC3)Cc3ccccc3[C@H]4N)n3ccnc23)c1Cl` [Compound 4, (S)-1′-(8-((2-amino-3-chloropyridin-4-yl)thio)imidazolo[1,2-c]pyrimidin-5-yl)-1,3-dihydrospirolindene-2,4′-piperidinel-1-amine], the bioavailability [1] is reported as 34%, the half-life [1] is reported as 5.4 h and the Cmax [1] is reported as 7 µM. For the same compound, the AUC [1] was 29 µM·h, the IC50 (MV4-11 cells; [2]) was 7 nM and the IC50 (SHP2 E76A protein) was 7 nM.

Work on `CNc1nccc(Sc2cnc(N3CCC4(CC3)Cc3ncccc3[C@H]4N)n3ccnc23)c1Cl` [Compound 5, (S)-1′-(8-((3-chloro-2-(methylamino)pyridin-4-yl)thio)imidazo[1,2-c]pyrimidin-5-yl)-5,7-dihydrospiro[cyclopenta[b]pyridine-6,4′-piperidine]-5-amine] yielded an IC50 (MV4-11 cells; MV4-11, 72 h) of 6 nM and an IC50 (SHP2 E76A protein) of 5 nM.

For `Nc1nccc(Sc2cnc(N3CCC4(CC3)Cc3ncccc3[C@H]4N)n3ccnc23)c1Cl` [Compound 6, (S)-1′-(8-((2-amino-3-chloropyridin-4-yl)thio)imidazo[1,2-c]pyrimidin-5-yl)-5,7-dihydrospiro[cyclopenta[b]pyridine-6,4′-piperidine]-5-amine], the bioavailability [1] was 37%, the half-life [1] was 3.1 h and the Cmax [1] was 6 µM. For the same compound, the AUC [1] was 35 µM·h, the IC50 (MV4-11 cells; [2]) was 4 nM and the IC50 (SHP2 E76A protein) was 6 nM.

Work on `Nc1nccc(Sc2cnc(N3CCC4(CC3)Cc3ccncc3[C@H]4N)n3cnnc23)c1Cl` [Compound 7, (5)-1′-(8-((2-amino-3-chloropyridin-4-yl)thio)-[1,2,4]triazolo[4,3-c]pyrimidin-5-yl)-5,7-dihydrospiro[cyclopenta[c]pyridine-6,4′-piperidine]-7-amine] yielded a bioavailability [1] of 98%, a half-life [1] of 3 h and a Cmax [1] of 7.5 µM. The AUC [1] was 43 µM·h, the IC50 (MV4-11 cells; [2]) was 29 nM and the IC50 (SHP2 E76A protein) was 3 nM.

Compound `Nc1nccc(Sc2cnc(N3CCC4(CC3)Cc3ccncc3[C@H]4N)n3ccnc23)c1Cl` [Compound 8, (S)-1′-(8-((2-amino-3-chloropyridin-4-yl)thio)imidazo[1,2-c]pyrimidin-5-yl)-5,7-dihydrospiro[cyclopenta[c]pyridine-6,4′-piperidine]-7-amine] has an IC50 (MV4-11 cells; [2]) of 33 nM and an IC50 (SHP2 E76A protein) of 10 nM.

Work on `N[C@@H]1c2ncccc2CC12CCN(c1ncc(Sc3ccnc(Cl)c3Cl)c3nncn13)CC2` [Compound 9, (S)-1′-(8-(2,3-dichloropyridin-4-yl)thio-[1,2,4]-triazolo[4,3-c]pyrimidin-5-yl)-5,7-dihydrospiro[cyclopenta[b]pyridine-6,4′-piperidine]-7-amine] yielded an IC50 (MV4-11 cells; MV4-11, 72 h) of 60 nM and an IC50 (SHP2 E76A protein) of 7 nM.

`Nc1nccc(Sc2cnc(N3CCC4(CC3)Cc3cccnc3[C@H]4N)n3cnnc23)c1Cl` [Compound 11, (S)-1′-(8-((2-amino-3-chloropyridin-4-yl)thio)-[1,2,4]triazolo[4,3-c]pyrimidin-5-yl)-5,7-dihydrospiro[cyclopenta[b]pyridine-6,4′-piperidine]-7-amine] gave an IC50 (MV4-11 cells; [2]) of 30 nM and an IC50 (SHP2 E76A protein) of 1 nM.

With `Nc1nccc(Sc2cnc(N3CCC4(CC3)Cc3ccc(F)cc3[C@H]4N)n3cnnc23)c1Cl` [Compound 12, (S)-1′-(8-((2-amino-3-chloropyridin-4-yl)thio)-[1,2,4]triazolo[4,3-c]pyrimidin-5-yl)-6-fluoro-1,3-dihydrospiro[indene-2,4′-piperidine]-1-amine] the IC50 (MV4-11 cells; [2]) was 30 nM and the IC50 (SHP2 E76A protein) was 2 nM.

In the case of `Nc1nccc(Sc2cnc(N3CCC4(CC3)Cc3ccc(F)cc3[C@H]4N)n3ccnc23)c1Cl` [Compound 13, (S)-1′-(8-((2-amino-3-chloropyridin-4-yl)thio)imidazo[1,2-c]pyrimidin-5-yl)-6-fluoro-1,3-dihydrospirolindene-2,4′-piperidinel-1-amine], the IC50 (MV4-11 cells; [2]) is reported as 1 nM and the IC50 (SHP2 E76A protein) is reported as 1 nM.

For `Nc1nccc(Sc2cnc(N3CCC4(CC3)Cc3cnccc3[C@H]4N)n3ccnc23)c1Cl` [Compound 14, (S)-1′-(8-((2-amino-3-chloropyridin-4-yl)thio)imidazo[1,2-c]pyrimidin-5-yl)-5,7-dihydrospiro[cyclopenta[c]pyridine-6,4′-piperidine]-5-amine], the IC50 (MV4-11 cells; [2]) was 36 nM and the IC50 (SHP2 E76A protein) was 8 nM.

Work on `Nc1nccc(Sc2cnc(N3CCC4(CC3)Cc3cnccc3[C@H]4N)n3cnnc23)c1Cl` [Compound 15, (S)-1′-(8-((2-amino-3-chloropyridin-4-yl)thio)-[1,2,4]triazolo[4,3-c]pyrimidin-5-yl)-5,7-dihydrospiro[cyclopenta[c]pyridine-6,4′-piperidine]-5-amine] yielded an IC50 (MV4-11 cells; [2]) of 94 nM and an IC50 (SHP2 E76A protein) of 3 nM.

Compound `Nc1nccc(Sc2cnc(N3CCC4(CC3)Cc3c(O)cccc3[C@H]4N)n3cnnc23)c1Cl` [Compound 16, (S)-1-amino-1′-(8-((2-amino-3-chloropyridin-4-yl)thio)-[1,2,4]triazolo[4,3-c]pyrimidin-5-yl)-1,3-dihydrospiro[indene-2,4′-piperidin]-4-ol] has an IC50 (MV4-11 cells; MV4-11, 72 h) of 52 nM and an IC50 (SHP2 E76A protein) of 2 nM.

For `N#Cc1cccc2c1CC1(CCN(c3ncc(Sc4ccnc(N)c4Cl)c4nncn34)CC1)[C@@H]2N` [Compound 17, (S)-1-amino-1′-(8-((2-amino-3-chloropyridin-4-yl)thio)-[1,2,4]triazolo[4,3-c]pyrimidin-5-yl)-1,3-dihydrospiro[indene-2,4′-piperidine]-4-nitrile], the IC50 (MV4-11 cells; [2]) was 35 nM and the IC50 (SHP2 E76A protein) was 10 nM.

Work on `COc1cccc2c1CC1(CCN(c3ncc(Sc4ccnc(N)c4Cl)c4nncn34)CC1)[C@@H]2N` [Compound 19, (S)-1′-(8-((2-amino-3-chloropyridin-4-yl)thio)-[1,2,4]triazolo[4,3-c]pyrimidin-5-yl)-4-methoxy-1,3-dihydrospiro[indene-2,4′-piperidine]-1-amine] yielded an IC50 (MV4-11 cells; [2]) of 1 nM and an IC50 (SHP2 E76A protein) of 7 nM.

For `Nc1nccc(Sc2cnc(N3CCC4(CC3)Cc3nccnc3[C@H]4N)n3cnnc23)c1Cl` [Compound 20, (S)-1′-(8-((2-amino-3-chloropyridin-4-yl)thio)-[1,2,4]triazolo[4,3-c]pyrimidin-5-yl)-5,7-dihydrospiro[cyclopenta[b]pyrazine-6,4′-piperidine]-5-amine], the IC50 (SHP2 E76A protein) was 6 nM.

For `N[C@@H]1c2ncccc2CC12CCN(c1ncc(Sc3cccnc3C(F)(F)F)c3nncn13)CC2` [Compound 21, (S)-1′-(8-((2-(trifluoromethyl)pyridin-3-yl)thio)-[1,2,4]-triazolo[4,3-c]pyrimidin-5-yl)-5,7-dihydrospiro[cyclopenta[b]pyridine-6,4′-piperidine]-7-amine], the IC50 (SHP2 E76A protein) was 11 nM.

Work on `Nc1nccc(Sc2cnc(N3CCC4(CC3)Cc3sc(Cl)nc3[C@H]4N)n3ccnc23)c1Cl` [Compound 22] yielded an IC50 (SHP2 E76A protein) of 9 nM.

In the case of `N[C@@H]1c2cccnc2CC12CCN(c1ncc(Sc3ccnc4[nH]ncc34)c3nccn13)CC2` [Compound 23], the IC50 (SHP2 E76A protein) is reported as 9 nM.

For `C[C@@H]1OCC2(CCN(c3ncc(Sc4ccnc(N)c4Cl)n4nccc34)CC2)[C@@H]1N` [Positive control aa, reference compound], the IC50 (MV4-11 cells; [2]) was 423 nM and the IC50 (SHP2 E76A protein) was 26 nM.
